Experiments:
[1] = tested on: PC-3 prostate cancer cell line; experiment: SRB assay cell viability, PC-3 prostate cancer cell line; format: cell-based, human; settings: Homo sapiens, PC-3 prostate cancer cell line, Table II prints no unit, μM printed, read-out: SRB assay: 50% inhibition of cancer cell proliferation of sample concentration (IC50) of PC-3 prostate cancer cell line

Cc1ccc(C)c(Sc2cc3c(c4nsnc24)C(=O)c2ccccc2C3=O)c1 [C20, 4-(2,5-dimethyl-phenyl-thio)anthra[2,1-c] [1,2,5]thiadiazol-6,11-dione]
melting point: 243 to 244 °C
IC50 [1]: 7.44 µM

CC(C)(C)c1ccc(CSc2cc3c(c4nsnc24)C(=O)c2ccccc2C3=O)cc1 [C57, 4-(4-tert-butylbenzylthio)anthra[2,1-c] [1,2,5]thiadiazol-6,11-dione]
melting point: 256 to 257 °C
IC50 [1]: 7.47 µM

CCN(CC)c1cc2c(c3nsnc13)C(=O)c1ccccc1C2=O [C5, 4-(diethylamino)anthra[2,1-c][1,2,5] thiadiazol-6,11-dione]
melting point: 204 to 205 °C
IC50 [1]: 1.1 µM

From patent US8877748B2, “Heterocyclic fused anthraquinone derivatives, manufacturing method and pharmaceutical composition using thereof” (National Defense Medical Center, priority 2012, dated 2014)
